Peptide text beside a SMILES is read from it. * marks the point of attachment. Cbz = O=C(OCc1ccccc1)*
What was measured:
[1] = system: P-ERK in peripheral blood monocytes; assay: TNFα induced ERK activation in monocytes from pretreated whole blood; type: cell-based, human; conditions: TNFα activated monocytes, whole blood pretreated with inhibitor
Procedure: (§1) Whole blood samples from normal human donors were collected. 100 μL aliquots of the whole blood were inserted into the bottom of 12×75 mm tubes. In order to reduce the potential for contamination of the sample with unfixed cells, blood was removed from the side of the tubes with a cotton swab. 1-2 μL of a proteasome effector was added to a first portion of the tubes and these tubes were incubated for 2 hours at 37° C. in a water bath. In this example, the proteasome effector was Bortezomib or MG-132, both proteasome inhibitors. […]
(§2) Following the above wash steps, the fixed and permeabilized cells were resuspended in 100 μL of cold Wash Buffer comprising antibodies to specific intracellular antigens (e.g., signaling targets including P-ERK, P-Akt, P-p38, P-SAPK, P-S6, and antibodies to IκB). […] The supernatant was aspirated and the cell pellet was resuspended in 350 μL of Resuspension Buffer (PerFix-P® kit) and analyzed on a flow cytometer (GALLIOS™) using a protocol with defined population gates and series of dual parameter histograms. A CD45-KO vs. SS dual parameter histogram was collected and a gate around the leukocyte population based on the CD45+ fluorescence and SS characteristics was drawn to exclude debris (CD45 negative events). […] The collected flow cytometric data was analyzed using KALUZA™ software. […]

[2] = system: proteasome activity (IκB degradation, ERK activation) in monocytes; assay: Proteasome inhibition in blood monocytes of Multiple Myeloma patients receiving Bortezomib therapy (LPS stimulation ex vivo); parameters: species or system human
Procedure: (§3) Whole blood samples from eight Multiple Myeloma (MM) patients were obtained. For three of the MM patients (MM003-MM005), whole blood samples were tested with or without LPS activation (10 min stimulation at 37° C.) and the samples were processed and analyzed for IκB degradation and signaling pathway activation as described in Example 1.
(§4) Blood samples from the 5 remaining MM patients samples were pretreated with Bortezomib or RP-171 (Carfilzomib, a covalent proteasome inhibitor) and then tested and analyzed with or without LPS activation (10 min LPS at 37 37° C.) for IκB degradation and signaling pathway activation as described in Example 1. […] All of the MM patients tested were receiving Bortezomib therapy.

[3] = system: IκB in peripheral blood lymphocytes; assay: Flow cytometry assay, whole blood pretreated with effector: LPS induced degradation of IκB in lymphocytes; type: cell-based, human; conditions: whole blood pretreated with inhibitor, then LPS
Procedure: (§5) The assay generally comprises treating whole blood with an IκB degradation agonist and/or proteasome effector, fixing the blood cells, permeabilizing the fixed bloods cells, treating the fixed and permeabilized cells with an alcohol treatment to unmask intracellular phosphor-epitopes, and then staining the treated cells with antibodies for flow cytometry analysis.
(§6) Whole blood samples from normal human donors were collected. 100 μL aliquots of the whole blood were inserted into the bottom of 12×75 mm tubes. In order to reduce the potential for contamination of the sample with unfixed cells, blood was removed from the side of the tubes with a cotton swab. […]
(§7) Following the above wash steps, the fixed and permeabilized cells were resuspended in 100 μL of cold Wash Buffer comprising antibodies to specific intracellular antigens (e.g., signaling targets including P-ERK, P-Akt, P-p38, P-SAPK, P-S6, and antibodies to IκB). […] The supernatant was aspirated and the cell pellet was resuspended in 350 μL of Resuspension Buffer (PerFix-P® kit) and analyzed on a flow cytometer (GALLIOS™) using a protocol with defined population gates and series of dual parameter histograms. A CD45-KO vs. SS dual parameter histogram was collected and a gate around the leukocyte population based on the CD45+ fluorescence and SS characteristics was drawn to exclude debris (CD45 negative events). […]

[4] = system: IκB in peripheral blood monocytes; assay: Flow cytometry assay, whole blood pretreated with effector: LPS induced degradation of IκB in monocytes; type: cell-based, human; conditions: then LPS
Procedure: as §1, with “inhibitors. Following pretreatment with the proteasome effector, 2 μL of 50 mg/mL stock solution (100 ng) of an IκB degradation agonist was added to the tubes and the tubes were incubated from 1 minute to 60 minutes at 37° C. in a water bath. In this example, the agonist was lipopolysaccharide (LPS). A second portion of the tubes were treated with the IκB degradation agonist and no proteasome effector.” for “inhibitors.”
Following the above wash steps, the fixed and permeabilized cells were resuspended in 100 μL of cold Wash Buffer comprising antibodies to specific intracellular antigens (e.g., signaling targets including P-ERK, P-Akt, P-p38, P-SAPK, P-S6, and antibodies to IκB). […] The supernatant was aspirated and the cell pellet was resuspended in 350 μL of Resuspension Buffer (PerFix-P® kit) and analyzed on a flow cytometer (GALLIOS™) using a protocol with defined population gates and series of dual parameter histograms. A CD45-KO vs. SS dual parameter histogram was collected and a gate around the leukocyte population based on the CD45+ fluorescence and SS characteristics was drawn to exclude debris (CD45 negative events). […] The collected flow cytometric data was analyzed using KALUZA™ software.
(§8) Phosphorylation of signaling pathways activated by LPS, including ERK, Akt (activated by PI3 Kinase), and the ribosomal S6 protein (a marker of protein synthesis) were also monitored together with the degradation of IκB. […] The degradation of IκB in cells pretreated with MG-132 or GDC-0941 was monitored by flow cytometry as described in Example 1. […]

IκB in granulocytes = assay: Flow cytometry assay, whole blood pretreated with effector: IκB levels in granulocytes after LPS; type: cell-based, human; conditions: whole blood pretreated with inhibitor, then LPS; 60 minutes time period
Procedure: as §5, §6, §7

[5] = system: IκB in peripheral blood monocytes; assay: TNFα induced degradation of IκB in monocytes from pretreated whole blood; type: cell-based, human; conditions: TNFα activated monocytes, whole blood pretreated with inhibitor
Procedure: as §1, §2

[6] = system: P-S6 (P-Ser235/P-Ser236) in peripheral blood monocytes; assay: S6 phosphorylation in LPS activated monocytes from pretreated whole blood; type: cell-based, human
Procedure: as §1, §2

[7] = system: P-Akt (P-Ser473) in peripheral blood monocytes; assay: Akt phosphorylation in LPS activated monocytes from pretreated whole blood; type: cell-based, human
Procedure: as §1, §2

[8] = system: P-ERK (P-Thr202/P-Tyr204) in peripheral blood monocytes; assay: ERK phosphorylation in LPS activated monocytes from pretreated whole blood; type: cell-based, human; conditions: LPS activated monocytes
Procedure: (§9) Whole blood samples from normal human donors were collected. 100 μL aliquots of the whole blood were inserted into the bottom of 12×75 mm tubes. In order to reduce the potential for contamination of the sample with unfixed cells, blood was removed from the side of the tubes with a cotton swab. 1-2 μL of a proteasome effector was added to a first portion of the tubes and these tubes were incubated for 2 hours at 37° C. in a water bath. In this example, the proteasome effector was Bortezomib or MG-132, both proteasome inhibitors. Following pretreatment with the proteasome effector, 2 μL of […] stock solution (100 ng) of an IκB degradation agonist was added to the tubes and the tubes were incubated from 1 minute to 60 minutes at 37° C. in a water bath. In this example, the agonist was lipopolysaccharide (LPS). A second portion of the tubes were treated with the IκB degradation agonist and no proteasome effector. 2 μL of an IκB degradation agonist was added to these tubes and the tubes were incubated from 1 minute to 60 minutes as described above. For control tubes, 2 μL of phosphate buffered saline (PBS) was added to the tubes and the tubes were incubated as described above.
(§10) Following incubation, the cells were fixed and permeabilized with a PerFix-P® kit (Beckman Coulter, Inc., Brea. Calif.) according to the manufacturer's instructions. The fixed and permeabilized cells were then washed with 2 mL of Wash Buffer (PBS (w/o Ca++/Mg++) with 2% fetal bovine serum (FBS), sterile filtered (0.22 μm filter)) in the tubes and centrifuged at 500×g for 4 minutes. The cell pellet was resuspended in 2 mL of cold (4° C.) Wash Buffer, centrifuged at 500×g for 4 minutes, and the supernatant was aspirated.
Following the above wash steps, the fixed and permeabilized cells were resuspended in 100 μL of cold Wash Buffer comprising antibodies to specific intracellular antigens (e.g., signaling targets including P-ERK, P-Akt, P-p38, P-SAPK, P-S6, and antibodies to IκB). The antibodies were labeled with different fluorochromes (e.g. fluorophores) to facilitate their-individual measurement of the intracellular antigens. […] For example, anti-CD14 antibodies were included to specifically label monocytes, anti-CD3 antibodies or anti-CD19 antibodies were included to specifically label T or B-cells respectively, and/or anti-CD38/CD138 antibodies were included to specifically label plasma cells. The cells were incubated with the antibodies for 30 minutes at room temperature and then the cells were washed in 2 mL of cold Wash Buffer and centrifuged as described above. The supernatant was aspirated and the cell pellet was resuspended in 350 μL of Resuspension Buffer (PerFix-P® kit) and analyzed on a flow cytometer (GALLIOS™) using a protocol with defined population gates and series of dual parameter histograms. A CD45-KO vs. SS dual parameter histogram was collected and a gate around the leukocyte population based on the CD45+ fluorescence and SS characteristics was drawn to exclude debris (CD45 negative events). A minimum of 2,500 CD14+ events were collected. […] The collected flow cytometric data was analyzed using KALUZA™ software.
as §8

granulocytes = assay: IκB degradation agonists in whole blood: IκB degradation and signaling pathway activation in granulocytes; type: cell-based, human
Procedure: as §9, §10
Following the above wash steps, the fixed and permeabilized cells were resuspended in 100 μL of cold Wash Buffer comprising antibodies to specific intracellular antigens (e.g., signaling targets including P-ERK, P-Akt, P-p38, P-SAPK, P-S6, and antibodies to IκB). The antibodies were labeled with different fluorochromes (e.g. fluorophores) to facilitate their-individual measurement of the intracellular antigens. […] The supernatant was aspirated and the cell pellet was resuspended in 350 μL of Resuspension Buffer (PerFix-P® kit) and analyzed on a flow cytometer (GALLIOS™) using a protocol with defined population gates and series of dual parameter histograms. A CD45-KO vs. SS dual parameter histogram was collected and a gate around the leukocyte population based on the CD45+ fluorescence and SS characteristics was drawn to exclude debris (CD45 negative events). […] The collected flow cytometric data was analyzed using KALUZA™ software.

[9] = system: peripheral blood lymphocytes; assay: IκB degradation agonists in whole blood: IκB degradation and signaling pathway activation in lymphocytes; type: cell-based, human; conditions: for Pathways Activated: Target Cell Population: Lymphocytes (subpopulation)
Procedure: as §9, §10
(§11) Following the above wash steps, the fixed and permeabilized cells were resuspended in 100 μL of cold Wash Buffer comprising antibodies to specific intracellular antigens (e.g., signaling targets including P-ERK, P-Akt, P-p38, P-SAPK, P-S6, and antibodies to IκB). The antibodies were labeled with different fluorochromes (e.g. fluorophores) to facilitate their-individual measurement of the intracellular antigens. In order to target specific cell populations in the assay, antibodies capable of differentiating cell populations within the blood sample were also included in some of the tubes. For example, anti-CD14 antibodies were included to specifically label monocytes, anti-CD3 antibodies or anti-CD19 antibodies were included to specifically label T or B-cells respectively, and/or anti-CD38/CD138 antibodies were included to specifically label plasma cells. The cells were incubated with the antibodies for 30 minutes at room temperature and then the cells were washed in 2 mL of cold Wash Buffer and centrifuged as described above. The supernatant was aspirated and the cell pellet was resuspended in 350 μL of Resuspension Buffer (PerFix-P® kit) and analyzed on a flow cytometer (GALLIOS™) using a protocol with defined population gates and series of dual parameter histograms. A CD45-KO vs. SS dual parameter histogram was collected and a gate around the leukocyte population based on the CD45+ fluorescence and SS characteristics was drawn to exclude debris (CD45 negative events). A minimum of 2,500 CD14+ events were collected. A stop count region was set from the CD14-PC7 vs. SS histogram gated on monocytes. Dual parameter histograms gated on the appropriate populations were created to measure the populations of interest. The collected flow cytometric data was analyzed using KALUZA™ software.
(§12) Phosphorylation of signaling pathways activated by TNF-α, including ERK, Akt, and the ribosomal S6 protein, was monitored together with the degradation of IκB in peripheral blood WBCs. Whole blood samples were treated, activated, and processed as described in Example 1 and the degradation of IκB in peripheral blood cells was monitored by flow cytometry as described in Example 1. The IκB degradation agonist used in this example was TNF-α. […]

monocytes of MM patients = assay: LPS stimulation of monocytes in whole blood of Multiple Myeloma patients; type: cell-based, human; conditions: 10 min LPS
Procedure: as §3, §4

[10] = system: peripheral blood monocytes; assay: IκB degradation agonists in whole blood: IκB degradation and signaling pathway activation in monocytes; type: cell-based, human; conditions: for Pathways Activated: Target Cell Population: Monocytes
Procedure: as §9, §10, §11, §12

[11] = three MM patients (MM003-MM005), 10 min LPS at 37° C.

CC(C)C[C@H](NC(=O)[C@H](Cc1ccccc1)NC(=O)c1cnccn1)B(O)O [Bortezomib]
activation of ERK [1]: completely inhibited
proteasome inhibition ([2]; all MM patients tested, blood draw a week after the treatment): no proteasome inhibition was detected
inhibition of ERK activation following LPS stimulation [2, 11]: no inhibition
inhibition of IκB degradation following LPS stimulation [2, 11]: no inhibition
LPS induced degradation of IκB in lymphocytes [3]: inhibition of LPS induced degradation of IκB
loss in measured IκB ([4]; monocytes, whole blood pretreated with inhibitor 2 hours at 37° C., within 10 minutes): ~10%
degradation of IκB in granulocytes (IκB in granulocytes): No significant degradation
degradation of IκB [5]: completely inhibited

CC(C)C[C@@H](C=O)NC(=O)[C@H](CC(C)C)NC(=O)[C@H](CC(C)C)NC(=O)OCc1ccccc1 [MG-132] (Cbz-Leu-Leu-Leu-aldehyde)
MFI of the S6 phosphorylation response, lower than in the sample treated with only LPS [6]: approximately 50%
Akt activation [7]: no effect
LPS induced degradation of IκB in lymphocytes [3]: No significant degradation
effect on LPS induced degradation of IκB in monocytes ([4]; whole blood pretreated with compound): inhibited degradation of IκB
degradation of IκB in granulocytes (IκB in granulocytes): No significant degradation
"early" (first) ERK phosphorylation peak ([8]; 2-4 minutes): not the first
"late" (second) ERK activation peak ([8]; about 10 minutes): inhibited

lipopolysaccharide [LPS]
Pathways Activated (granulocytes; Target Cell Population: Granulocytes): P-p38 MAP kinase
degradation of IκB in granulocytes (granulocytes; agonist alone): No significant degradation
Pathways Activated ([9]; pathway: ERK MAP kinase (Tpl-2)): ERK MAP kinase (Tpl-2)
Pathways Activated ([9]; pathway: IκB > NFκB): IκB > NFκB
Pathways Activated ([9]; pathway: PI3 kinase > Akt): PI3 kinase > Akt
degradation of IκB in lymphocytes at 10 min ([9]; agonist alone, 10 min): no significant degradation
loss of IκB (monocytes of MM patients; six MM samples): 60-70%
percent decrease of IκB MFI (monocytes of MM patients; two MM samples): 48%
Pathways Activated ([10]; pathway: IκB > NFκB): IκB > NFκB
Pathways Activated ([10]; pathway: P-p 38 MAP kinase): P-p 38 MAP kinase
Pathways Activated ([10]; pathway: PI3 kinase > Akt): PI3 kinase > Akt
Pathways Activated ([10]; pathway: SAP/JNK MAP kinase): SAP/JNK MAP kinase
Pathways Activated ([10]; pathway: Tpl-2 > ERK/MAP kinase): Tpl-2 > ERK/MAP kinase
loss in measured IκB ([10]; agonist alone, normal donors, monocytes, within 10 minutes of treatment): 60-70%
